# Measurements reported in PubChem BioAssay (NCI).
# Values joined by “and” are separate entries in the source; they are usually repeats but may differ in a detail not shown here. Equal values may be shown once.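 How tested: cells in 96-well plates exposed to compound for 48 hours at five concentrations. At the GI50, growth is halved. TGI: total growth inhibition.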
# What was measured:
# Experiment in all cases: growth of human tumour cells (NCI), 48 h
# [1] = tested on: NCI-H23 lung
# [2] = tested on: SK-OV-3 ovarian
# [3] = tested on: SF-268 CNS
# [4] = tested on: NCI-H522 lung
# [5] = tested on: M14 melanoma
# [6] = tested on: PC-3 prostate
# [7] = tested on: NCI-H226 lung
# [8] = tested on: CCRF-CEM leukemia
# [9] = tested on: SF-539 CNS
# [10] = tested on: HL-60(TB) leukemia
# [11] = tested on: OVCAR-8 ovarian
# [12] = tested on: BT-549 breast
# [13] = tested on: SR leukemia
# [14] = tested on: SK-MEL-28 melanoma
# [15] = tested on: A549 NSCLC
# [16] = tested on: RPMI-8226 leukemia
# [17] = tested on: U251 CNS
# [18] = tested on: MOLT-4 leukemia
# [19] = tested on: HCT-116 colon
# [20] = tested on: IGROV1 ovarian
# [21] = tested on: UO-31 renal
# [22] = tested on: LOX IMVI melanoma
# [23] = tested on: MDA-MB-231 breast
# [24] = tested on: A498 renal
# [25] = tested on: KM12 colon
# [26] = tested on: T-47D breast
# [27] = tested on: CAKI-1 renal
# [28] = tested on: 786-0 renal
# [29] = tested on: COLO 205 colon
# [30] = tested on: SK-MEL-5 melanoma
# [31] = tested on: MCF7 breast
# [32] = tested on: UACC-257 melanoma
# [33] = tested on: MDA-MB-435
# [34] = tested on: OVCAR-3 ovarian
# [35] = tested on: HT29 colon
# [36] = tested on: UACC-62 melanoma
# [37] = tested on: HCT-15 colon
# [38] = tested on: TK-10 renal
# [39] = tested on: SNB-19 CNS
# [40] = tested on: HS 578T breast
# [41] = tested on: SW-620 colon
# [42] = tested on: OVCAR-4 ovarian
# [43] = tested on: EKVX NSCLC
# [44] = tested on: K-562 leukemia
# [45] = tested on: HOP-92 NSCLC
# [46] = tested on: SNB-75 CNS
# [47] = tested on: HOP-62 NSCLC
# [48] = tested on: SF-295 CNS
# [49] = tested on: ACHN renal
# [50] = tested on: OVCAR-5 ovarian
# [51] = tested on: NCI-H460 lung
# [52] = tested on: HCC-2998 colon
# [53] = tested on: NCI/ADR-RES ovarian
# [54] = tested on: DU-145 prostate
# [55] = tested on: RXF 393 renal
# [56] = tested on: SN12C renal
compound,measurement,setting,value
OCCN1CCN(CCCN2c3ccccc3Sc3ccc(C(F)(F)F)cc32)CC1,GI50,[1],5.2 µM and 11.6 µM and 10.5 µM
same,TGI,[1],12 µM and 24.5 µM and 24.1 µM
same,GI50,[2],5.55 µM and 14.5 µM and 13.3 µM
same,TGI,[2],11.7 µM and 29.1 µM and 27.3 µM
same,GI50,[3],5.2 µM and 11.5 µM
same,TGI,[3],11.5 µM and 24.5 µM
same,TGI,[4],3.49 µM and 30.1 µM and 26.8 µM
same,GI50,[5],0.899 µM and 2.34 µM
same,TGI,[5],1.73 µM and 6.13 µM
same,GI50,[6],1.97 µM and 8.77 µM and 10.3 µM
same,TGI,[6],8.14 µM and 21.6 µM and 23 µM
same,GI50,[7],5.3 µM and 12.7 µM and 12.3 µM
same,TGI,[7],11.8 µM and 27.6 µM and 25.7 µM
same,GI50,[8],2.59 µM
same,TGI,[8],9.67 µM
same,GI50,[9],4.88 µM and 10.8 µM and 9.77 µM
same,TGI,[9],11.3 µM and 26.9 µM and 23.6 µM
same,GI50,[10],2.52 µM and 11.5 µM and 2.06 µM
same,TGI,[10],9.06 µM and 29.3 µM and 5.56 µM
same,GI50,[11],4.46 µM and 13.6 µM and 14 µM
same,TGI,[11],11.4 µM and 28.5 µM and 28.8 µM
same,GI50,[12],5.65 µM and 2.92 µM and 3.29 µM
same,TGI,[12],12.1 µM and 17.7 µM and 9.5 µM
same,GI50,[13],2.05 µM and 3.56 µM and 1.9 µM
same,TGI,[13],6.46 µM and 13.2 µM and 5.51 µM
same,GI50,[14],0.91 µM and 2.48 µM and 2.2 µM
same,TGI,[14],1.66 µM and 7.16 µM and 5.98 µM
same,GI50,[15],2.79 µM and 10.8 µM and 9.54 µM
same,TGI,[15],9.84 µM and 24 µM and 22.9 µM
same,GI50,[16],1.54 µM
same,TGI,[16],4.69 µM
same,GI50,[17],1.45 µM and 5.19 µM and 3.66 µM
same,TGI,[17],5.44 µM and 18.4 µM and 14.5 µM
same,GI50,[18],2.35 µM and 9.23 µM and 2.83 µM
same,TGI,[18],8.44 µM and 27 µM and 8.49 µM
same,GI50,[19],1.55 µM
same,TGI,[19],5.52 µM
same,GI50,[20],2.57 µM and 11.3 µM and 10.2 µM
same,TGI,[20],9.32 µM and 28.5 µM and 30.1 µM
same,GI50,[21],1.96 µM and 6.09 µM and 4.53 µM
same,TGI,[21],8.84 µM and 21.2 µM and 20 µM
same,GI50,[22],0.898 µM and 5.18 µM and 3.4 µM
same,TGI,[22],2 µM and 18.2 µM and 12.7 µM
same,GI50,[23],1.2 µM and 8.87 µM and 5.68 µM
same,TGI,[23],5.07 µM and 22.8 µM and 18.1 µM
same,GI50,[24],2.28 µM and 9.65 µM and 10.4 µM
same,TGI,[24],10.3 µM and 23.4 µM and 28.1 µM
same,GI50,[25],2.35 µM and 8.95 µM
same,TGI,[25],8.01 µM and 21.6 µM
same,GI50,[26],1.36 µM and 8.88 µM and 7.46 µM
same,TGI,[26],6.12 µM and 25.8 µM and 22.9 µM
same,GI50,[27],2.61 µM and 11.3 µM and 6.93 µM
same,TGI,[27],9.5 µM and 25.7 µM and 21.6 µM
same,GI50,[28],3.01 µM and 9.35 µM and 3.81 µM
same,TGI,[28],9.95 µM and 25.9 µM and 20.4 µM
same,GI50,[29],0.795 µM and 2.17 µM and 1.93 µM
same,TGI,[29],1.53 µM and 4.46 µM and 3.59 µM
same,GI50,[30],0.764 µM and 3.02 µM and 1.98 µM
same,TGI,[30],1.43 µM and 11 µM and 4.8 µM
same,GI50,[31],1.2 µM and 6.8 µM and 7.74 µM
same,TGI,[31],2.92 µM and 22.6 µM and 25.1 µM
same,GI50,[32],0.863 µM and 2.01 µM and 1.96 µM
same,TGI,[32],1.74 µM and 4.97 µM and 4.19 µM
same,GI50,[33],1.14 µM and 3.54 µM and 2.44 µM
same,TGI,[33],3 µM and 14 µM and 7.42 µM
same,GI50,[34],4.34 µM and 12.4 µM
same,TGI,[34],10.6 µM and 25.5 µM
same,GI50,[35],0.897 µM and 4.12 µM and 3.23 µM
same,TGI,[35],1.78 µM and 13.9 µM and 11 µM
same,GI50,[36],0.824 µM and 2.48 µM and 2.08 µM
same,TGI,[36],1.62 µM and 6.83 µM and 4.44 µM
same,GI50,[37],1.97 µM and 4.22 µM and 3.7 µM
same,TGI,[37],6.88 µM and 18.3 µM and 15 µM
same,GI50,[38],1.48 µM and 8.22 µM and 6.59 µM
same,TGI,[38],4.28 µM and 21.3 µM and 20.1 µM
same,GI50,[39],2.08 µM and 14 µM and 12.3 µM
same,TGI,[39],8.34 µM and 30.8 µM and 27.3 µM
same,GI50,[40],1.86 µM and 13.5 µM and 8.23 µM
same,TGI,[40],13.1 µM and 60.6 µM and 41.6 µM
same,GI50,[41],1.93 µM and 11.7 µM and 4.22 µM
same,TGI,[41],8.01 µM and 25.4 µM and 16.2 µM
same,GI50,[42],5.29 µM and 10.8 µM and 8.5 µM
same,TGI,[42],11.2 µM and 23.1 µM and 20.9 µM
same,GI50,[43],5.18 µM and 11.6 µM and 10.4 µM
same,TGI,[43],12.7 µM and 29.2 µM and 30.4 µM
same,GI50,[44],1.27 µM and 3.18 µM and 2.05 µM
same,TGI,[44],2.83 µM and 10.7 µM and 4.73 µM
same,GI50,[45],0.708 µM
same,TGI,[45],3.81 µM
same,GI50,[46],2.04 µM and 10 µM and 6.62 µM
same,TGI,[46],9.16 µM and 22.4 µM and 21.8 µM
same,GI50,[47],3.11 µM and 13.1 µM and 11.6 µM
same,TGI,[47],9.82 µM and 27.4 µM and 24.7 µM
same,GI50,[48],1.02 µM and 4.73 µM and 2.41 µM
same,TGI,[48],2.7 µM and 19.2 µM and 6.19 µM
same,GI50,[49],3.61 µM and 11.7 µM and 10.2 µM
same,TGI,[49],10.2 µM and 25.6 µM and 22.6 µM
same,GI50,[50],5.68 µM and 11.2 µM and 11.5 µM
same,TGI,[50],12.2 µM and 25.3 µM and 25.1 µM
same,GI50,[51],1.82 µM and 9.47 µM and 4.83 µM
same,TGI,[51],6.69 µM and 28.4 µM and 23.3 µM
same,GI50,[52],0.824 µM and 2.75 µM and 1.97 µM
same,TGI,[52],1.6 µM and 7.99 µM and 4.21 µM
same,GI50,[53],3.28 µM and 10.8 µM and 9.73 µM
same,TGI,[53],10.4 µM and 23.4 µM and 23.5 µM
same,GI50,[54],6.29 µM and 12.9 µM
same,TGI,[54],12.7 µM and 25.7 µM
same,GI50,[55],1.35 µM and 5.08 µM and 5.7 µM
same,TGI,[55],6.39 µM and 18.9 µM and 19.6 µM
same,GI50,[56],4.49 µM and 11.4 µM and 7.83 µM
same,TGI,[56],11.4 µM and 26.7 µM and 21.8 µM
